In patent US9055743B2, “Alpha, beta-unsaturated imines” (BAYER INTELLECTUAL PROPERTY GMBH, priority 2010, dated 2015):

Experiments:
Type in all cases: in vivo
[1] = test system: caterpillars of the army worm (Spodoptera frugiperda); experiment: Spodoptera frugiperda test (SPODFR spray treatment); conditions: 500 g/ha, spray, after 7 days; for pest or weed control at 500 g/ha: Spodoptera frugiperda, 168 h, read-out: activity (caterpillars killed)
Summary of the method: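 Activity in % read 7 days after armyworm caterpillars were placed on dried, sprayed Zea mays leaf discs; 0% means none killed. Spray prepared from an acetone/DMF concentrate with emulsifier, diluted with emulsifier-containing water.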

Lucilia cuprina larvae = experiment: Lucilia cuprina test (LUCICU); conditions: 100 ppm, after 2 days
Summary of the method: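 Horsemeat treated with compound (DMSO concentrate diluted in water) was populated with about 20 L. cuprina larvae. Percent kill was scored after 2 days, from 100% (all larvae dead) to 0% (none dead).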

[2] = test system: green peach aphid (Myzus persicae); experiment: Myzus test (MYZUPE spray treatment); conditions: 500 g/ha, spray, after 6 days; for pest or weed control at 500 g/ha: Myzus persicae, 144 h, read-out: activity (aphids killed)
Summary of the method: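 Activity read as % aphid kill 6 days after treatment (0% = none killed). Compound formulated in acetone and dimethylformamide plus alkylaryl polyglycol ether, diluted in water and sprayed onto infested Brassica pekinensis leaf discs.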

Aedes aegypti = experiment: Aedes test (AEDSAE surface treatment); conditions: for knock-down activity: 100 mg/m^2, two hours after contact, exposition 30 minutes; for mortality at 100 mg/m2: Aedes aegypti, read-out: activity (mortality in %); for Kill rate in % after 24 h: active compound concentration 1.6 g/ha
Summary of the method: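 Adults were held 30 minutes on glazed tiles carrying a dried acetone deposit of compound (2 mg/ml solution). Readouts: percent knock-down 2 h after contact, percent mortality 24 h after contact, where 0% means no mosquitoes killed.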

[3] = test system: greenhouse red spider mite (Tetranychus urticae); experiment: Tetranychus test; OP-resistant (TETRUR spray treatment); conditions: 500 g/ha, spray, after 6 days; for pest or weed control at 500 g/ha: Tetranychus urticae, 144 h, read-out: activity (spider mites killed)
Summary of the method: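 Activity, as % of mites killed (0–100%), was assessed 6 days after spraying. The spray was compound formulated with acetone, DMF and emulsifier, then diluted in water. It was applied to Phaseolus vulgaris leaf discs carrying every life stage of an OP-resistant spider mite strain.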

[4] = test system: cat fleas (Ctenocephalides felis, fully sensitive laboratory strain); experiment: Contact test against fleas in-vitro (CTECFE contact); conditions: for activity against cat fleas: 500 g/ha, after 48 h
Summary of the method: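 Test tubes coated from acetone solutions by rotation, top concentration 500 g/ha (500 μg/dm^2) on tube surface, serial 1:5 dilutions. 10-20 CO2-anesthetized adult fleas held at room temperature for 24 and 48 h. Activity scored versus acetone control: knock-down or death of all fleas = 100%.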

Musca domestica = Musca domestica test (MUSCDO); conditions: 100 ppm, after 2 days
Procedure: Musca domestica Test (MUSCDO)
Solvent: Dimethyl Sulphoxide
To produce a suitable preparation of active compound, 10 mg of active compound are mixed with 0.5 ml of dimethyl sulphoxide and the concentrate is diluted with water to the desired concentration. Vessels containing a sponge treated with the active compound preparation of the desired concentration are populated with adult Musca domestica.
After 2 days, the kill in % is determined 100% means that all flies have been killed; 0% means that none of the flies have been killed.

Ctenocephalides felis = Ctenocephalides felis oral test (CTECFE); conditions: 100 ppm in citrated cattle blood, after two days
Summary of the method: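 About 20 unfed adult C. felis fed through a parafilm membrane on citrated cattle blood containing compound (DMSO stock diluted to the desired concentration). Kill (%) determined after two days; 100% = all fleas dead, 0% = none dead.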

[5] = test system: Anopheles gambiae (homocygus kdr); experiment: Anopheles test (ANPHGB surface treatment); conditions: for knock-down activity: 100 mg/m^2, two hours after contact, exposition 30 minutes; for mortality at 100 mg/m2: Anopheles gambiae, read-out: activity (mortality in %); for Kill rate in % after 24 hours: active compound concentration 1.6 g/ha
Summary of the method: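 Adult mosquitoes held 30 min on a glazed tile treated with a dried 2 mg/ml acetone solution of compound. Mortality scored at 24 h (100% = all killed), knock-down percentage at 2 h post-contact.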

| SMILES | pest or weed control at 500 g/ha [1] | activity (kill in %) (Lucilia cuprina larvae) | pest or weed control at 500 g/ha [2] | knock-down activity (Aedes aegypti) | mortality at 100 mg/m2 (Aedes aegypti) | Kill rate in % after 24 h (Aedes aegypti) | pest or weed control at 500 g/ha [3] | activity against cat fleas [4] | Kill rate in % after 2 days ([4]; active compound concentration 0.032 g/ha) | activity (kill in %) (Musca domestica) | activity (kill in %) (Ctenocephalides felis) | knock-down activity [5] | mortality at 100 mg/m2 [5] | Kill rate in % after 24 hours [5] | activity (caterpillars killed) [1] | activity (aphids killed) [2] | activity (spider mites killed) [3] |
| --- | --- | --- | --- | --- | --- | --- | --- | --- | --- | --- | --- | --- | --- | --- | --- | --- | --- |
| Cc1ccc(N=C2C(=CSc3ccc(F)cc3)CCc3ccccc32)cc1 [Example 1-9] | 100% | 100% | 100% | 100% | 100% | 75% | 100% | 100% | 100% | 90% | 100% | 100% | 100% | 100% | – | – | – |
| Cc1ccc(N=C2C(=CSc3ccc(F)cc3)CCc3cc(F)ccc32)cc1 [Example 1-16] | 100% | 100% | 100% | 100% | 100% | 90% | 100% | 100% | – | 80% | 100% | 100% | 100% | 80% | – | – | – |
| Cc1ccc(N=C2C(=CSc3ccc(C)cc3)CCc3ccccc32)cc1 [Example 1-28] | – | 100% | – | 80% | – | – | – | 100% | – | 80% | 100% | 100% | – | – | 100% | 90% | 100% |
| Cc1ccc(N=C2C(=CSc3ccc(F)cc3)CSc3ccccc32)cc1 [Example 1-35] | 100% | 100% | 100% | 90% | 100% | 100% | 100% | 100% | – | – | 100% | 100% | 100% | 100% | – | – | – |
| Cc1ccc(N=C2C(=CSc3ccc(F)cc3)C(C)c3ccccc32)cc1 (stereo not drawn) [Example 1-57] | 100% | 100% | 100% | 100% | 100% | – | 100% | 100% | – | 85% | 100% | 80% | 100% | 100% | – | – | – |
